In the OligoGym collection:
HELM strings list units from the 5' end as sugar, base in round brackets, then linkage (d deoxyribose, r ribose, m 2'-O-methyl, p phosphodiester). Strings are as the collection lists them, not checked against the first reports. ss, as = sense and antisense strand; [fl2r] = 2'-fluoro

Details: siRNA
Note: test system not given here.

With “RNA1{r(U)p.r(U)p.r(U)p.r(C)p.r(C)p.r(C)p.r(C)p.r(C)p.r(A)p.r(G)p.r(G)p.[fl2r](U)p.r(A)p.r(A)p.r(C)p.r(G)p.r(A)p.r(U)p.r(U)p.r(T)p.r(T)}|RNA2{r(A)p.r(A)p.r(U)p.r(C)p.r(G)p.r(U)p.[fl2r](U)p.r(A)p.r(C)p.r(C)p.r(U)p.r(G)p.r(G)p.r(G)p.r(G)p.r(G)p.r(A)p.r(A)p.r(A)p.r(T)p.r(T)}$$$RNA1{StrandType:ss}|RNA2{StrandType:as}$” the target mRNA knockdown was 75%.
